# US9170266B2, “Fluorescent probe” (THE UNIVERSITY OF TOKYO, priority 2011, dated 2015)
# Like-named read-outs stand apart in the source and are kept apart here.
# How the values were obtained:
# [1] = Fluorescence quantum yield in sodium phosphate buffer (pH 9), rhodamine B as fluorescence standard; type: physicochemical; settings: standard rhodamine B (Φfl=0.65) in ethanol
# Protocol: (§1) Relationship between the fluorescence quantum yield and the oxidation potential of the benzene ring moiety of 2-Me TokyoMagenta synthesized in Example 1 mentioned above, as well as 2,4-DiMe TokyoMagenta, 2,5-DiMe TokyoMagenta, 2-OMe TokyoMagenta, 2-OMe-5-Me TokyoMagenta, and 2,5-OMe TokyoMagenta of (a) to (e) mentioned above was investigated. The fluorescence quantum yield was measured in a sodium phosphate buffer (pH 9) by using rhodamine B (Φfl=0.65) in ethanol as a control for fluorescence standard, and the oxidation potential was indicated with respect to a saturated calomel electrode (SCE) as a control. The dots plotted in FIG. 1 indicate the results of 2,4-DiMe TokyoMagenta, 2,5-DiMe TokyoMagenta, 2-OMe TokyoMagenta, 2-OMe-5-Me TokyoMagenta, and 2,5-OMe TokyoMagenta from the right, respectively. As clearly seen from the results shown in Table 1 and FIG. 1, the fluorescence quantum yields of the compounds changed depending on the oxidation potentials of the benzene ring moiety.
# The fluorescence quantum yield was measured in a sodium phosphate buffer (pH 9) by using rhodamine B (Φfl=0.65) in ethanol as a control for fluorescence standard.
# [2] = Oxidation potential of the benzene ring moiety; type: physicochemical; settings: vs saturated calomel electrode (SCE)
# Protocol: as §1
# [3] = Optical characteristics in 0.1 M phosphate buffer containing 1% DMSO, Table 3; type: physicochemical; settings: for λmax,fl: 0.1 M phosphate buffer (pH 9) containing 1% DMSO; for Φfl: 0.1 M phosphate buffer (pH 9), standard 2-Me TokyoMagenta (0.42); for λmax,abs pH 3 / λmax,abs pH 9: 0.1 M phosphate buffer containing 1% DMSO
# Protocol: The measurement was performed in a 0.1 M phosphate buffer (pH 9) containing 1% DMSO. pKa was obtained from the absorbance measured in a phosphate buffer (pH 9) by monophasic or biphasic curve fitting. The quantum yield was obtained by using the quantum yield of 2-Me TokyoMagenta (0.42) in a 0.1 M phosphate buffer (pH 9) as the standard.
# [4] = Evaluation of calcium fluorescent probes: absorption and fluorescence spectra at various free Ca2+ concentrations; type: binding; settings: for Kd: Ca2+; for Kd / Φfl in 0 μM free [Ca2+] buffer / λabs in 0 μM free [Ca2+] buffer / λfl in 0 μM free [Ca2+] buffer / Φfl in 39 μM free [Ca2+] buffer / λabs in 39 μM free [Ca2+] buffer / λfl in 39 μM free [Ca2+] buffer: 30 mM MOPS buffer pH 7.2, 100 mM KCl, 10 mM EGTA, 22°C; for Change of fluorescence intensity with Ca2+ ion concentration: free Ca2+ 0 to 35/39 μM; for Change of fluorescence intensity with Ca2+ ion concentration / Change of absorption spectra with Ca2+ ion concentration: pH 7.2, 22°C; for Change of absorption spectra with Ca2+ ion concentration: free Ca2+ 0 to 39 μM
# Protocol: Fluorescence of Calcium TokyoMagenta obtained in Example 3 was measured in the presence of calcium ions of various concentrations. Free calcium ions at various concentrations (0, 0.017, 0.038, 0.065, 0.100, 0.150, 0.225, 0.351, 0.602, 1.35, and 35 μM) was added to the solution of Calcium TokyoMagenta (1 μM) dissolved in a 30 mM MOPS buffer (pH 7.2) containing 100 mM potassium chloride and 10 mM EGTA, and the fluorescence spectrum was measured at 22° C. (excitation wavelength: 550 nm).
# The fluorescent probes prepared in Examples 13 and 14 were evaluated. Ca^2+-dependent changes of absorption spectra and fluorescence spectra of CaTM-1 (a) and CaTM-2 (b) were measured in a 30 mM 3-(N-morpholino)propanesulfonic acid (MPOS) buffer (pH 7.2) containing 100 mM potassium chloride and 10 mM ethylene glycol tetraacetic acid (EGTA) at 22° C. in the presence of various concentrations of free Ca^2+ ions (0, 0.017, 0.038, 0.065, 0.100, 0.150, 0.225, 0.351, 0.602, 1.35, and 39 μM). […] Thus, it was confirmed that they functioned as a fluorescent probe for measuring calcium ions in a sample by using fluorescence.
# [5] = pKa from pH-dependent absorbance in phosphate buffer
# Protocol: The measurement was performed in a 0.1 M phosphate buffer (pH 9) containing 1% DMSO. pKa was obtained from the absorbance measured in a phosphate buffer (pH 9) by monophasic or biphasic curve fitting.
# [6] = Optical characteristics (absorption, fluorescence, quantum yield) in phosphate buffer, Table 2; settings: phosphate buffer (pH 9)
# Protocol: In the table, the items attached with the letter a were measured in a phosphate buffer (pH 9), and the item attached with the letter b was measured in a 0.1 M phosphate buffer containing 1% DMSO.
# [7] = in ethanol; control for fluorescence standard; cited from earlier work
# A549 cells = assay: Localization of probes in live A549 cells by fluorescence; type: cell-based; settings: live A549 cells loaded with the AM ester; hydrolysed in cell by esterase
# Protocol: Among the photographs, (c) to (e) show Rhod-2 localized in the mitochondria. The fluorescence imaging was performed by incubating Rhod-2 AM (3 μM) with Mito Tracker Green FM (0.2 μM). […] The scale bars indicate 10 μm.
# (§2) Change of calcium concentration induced by histamine in a HeLa cell was measured by using CaTM-2-AM or Rhod-2-AM. A HeLa cell loaded with 3 μM CaTM-2-AM ((a) to (d)) or Rhod-2-AM ((e) to (h)) in HBSS was stimulated with histamine (1 μM). Further, localization of CaTM-2-AM (a) and Rhod-2-AM (b) in live A549 cells loaded with each of them was investigated by measuring fluorescence.
# [8] = tested on: neuronal action potential; assay: Continuous calcium ion imaging with patch clamping in a cell membrane adhered state; type: cell-based; settings: fluorescence method with simultaneous patch clamping
# Source text: The result of continuous imaging of calcium ions performed by the patch clamping method in a cell membrane adhered state is shown in FIG. 11.
# HeLa cells = assay: Histamine-induced calcium concentration change in HeLa cells; type: cell-based; settings: HeLa cells loaded with 3 μM AM ester in HBSS, histamine 1 μM; compared with Rhod-2
# Protocol: FIG. 8b and FIG. 8c show fluorescence images obtained with CaTM-2 at the times indicated with ▾ in FIG. 8d, and FIG. 8f and FIG. 8g show fluorescence images obtained with Rhod-2 at the times indicated with ▾ in FIG. 8h. FIG. 8d and FIG. 8h show fluorescence change in individual cells specified in FIG. 8a and FIG. 8e, respectively. The scale bars indicate 30 μm.
# as §2
# [9] = 0.1 M phosphate buffer containing 1% DMSO
compound,measurement,setting,value
"COc1ccccc1C1=C2C=CC(=O)C=C2[Si](C)(C)c2cc(O)ccc21 [2-OMe, 2-Methoxy TokyoMagenta]",Φfl,[1],0.31
same,Oxidation potential (V vs SCE),[2],1.75 V vs SCE
Cc1ccccc1C1=C2C=CC(=O)C(Cl)=C2[Si](C)(C)c2c1ccc(O)c2Cl [2-Me DCTM],"λmax,fl",[3],607 nm
same,Φfl,[3],0.48
same,"λmax,abs pH 3",[3],477 nm
same,"λmax,abs pH 9",[3],595 nm
Calcium TokyoMagenta,Kd,"[4]; probe 1 μM, excitation 550 nm, read-out: Kd value",250 nM
same,Change of fluorescence intensity with Ca2+ ion concentration,[4],Increase of the fluorescence intensity was observed with increase of the calcium ion concentration
2-Me Ge-TM,pKa,[5]; [9],6.7
"Cc1ccc(C)c(C2=C3C=CC(=O)C=C3[Si](C)(C)c3cc(O)ccc32)c1 [2,5-DiMe, 2,5-Dimethyl TokyoMagenta]",Φfl,[1],0.44
same,Oxidation potential (V vs SCE),[2],1.98 V vs SCE
C[Si]1(C)C2=C(Cl)C(=O)C=CC2=C(c2ccccc2C(=O)O)c2ccc(O)c(Cl)c21 [2-COOH DCTM],"λmax,fl",[3],607 nm
same,Φfl,[3],0.48
same,"λmax,abs pH 9",[3],591 nm
CaTM-1,Φfl in 0 μM free [Ca2+] buffer,[4],0.066
same,λabs in 0 μM free [Ca2+] buffer,[4],585 nm
same,λfl in 0 μM free [Ca2+] buffer,[4],603 nm
same,Φfl in 39 μM free [Ca2+] buffer,[4],0.37
same,λabs in 39 μM free [Ca2+] buffer,[4],585 nm
same,λfl in 39 μM free [Ca2+] buffer,[4],603 nm
same,Kd,[4]; read-out: Kd,380 nM
same,Change of absorption spectra with Ca2+ ion concentration,[4],not changed
same,Change of fluorescence intensity with Ca2+ ion concentration,[4],fluorescence intensity was increased with increasing of Ca^2+ ion concentration
"COc1ccc(OC)c(C2=C3C=CC(=O)C=C3[Si](C)(C)c3cc(O)ccc32)c1 [2,5-DiOMe, 2,5-Dimethoxy TokyoMagenta]",Φfl,[1],0
same,Oxidation potential (V vs SCE),[2],1.26 V vs SCE
CC[Si]1(CC)C2=CC(=O)C=CC2=C(c2ccccc2C)c2ccc(O)cc21 [2-Me DiEtTM],Φfl,[6],0.48
same,λabs,[6],582 nm
same,λfl,[6],601 nm
CCN(CC)c1ccc2c(-c3ccccc3C(=O)O)c3ccc(=[N+](CC)CC)cc-3oc2c1.[Cl-] [rhodamine B],Φfl of fluorescence standard,[7],0.65
Rhod-2 [reference compound],Intracellular localization,A549 cells,accumulated in mitochondria
"COc1ccc(C)cc1C1=C2C=CC(=O)C=C2[Si](C)(C)c2cc(O)ccc21 [2-OMe-5-Me, 2-Methoxy-5-methyl TokyoMagenta]",Φfl,[1],0.14
same,Oxidation potential (V vs SCE),[2],1.57 V vs SCE
C[Si]1(C)C2=C(F)C(=O)C=CC2=C(c2ccccc2C(=O)O)c2ccc(O)c(F)c21 [2-COOH DFTM],"λmax,fl",[3],596 nm
same,Φfl,[3],0.54
same,"λmax,abs pH 9",[3],581 nm
Cc1ccccc1C1=C2C=CC(=O)C(F)=C2[Si](C)(C)c2c1ccc(O)c2F [2-Me DFTM],"λmax,fl",[3],598 nm
same,Φfl,[3],0.57
same,"λmax,abs pH 3",[3],465 nm
same,"λmax,abs pH 9",[3],583 nm
"Cc1ccccc1C1=C2C=CC(=O)C=C2[Si](C)(C)c2cc(O)ccc21 [2-Me TM, 2-Me TokyoMagenta]",Φfl,[6],0.42
same,λabs,[6],582 nm
same,λfl,[6],598 nm
same,Φfl,[1],0.42
same,Oxidation potential (V vs SCE),[2],2.19 V vs SCE
same,pKa,[5]; [9],6.8
same,pKa,[5]; from absorbance in phosphate buffer by monophasic or biphasic curve fitting,6.8
same,"λmax,fl",[3],598 nm
same,Φfl,[3],0.42
same,"λmax,abs pH 3",[3],472 nm
same,"λmax,abs pH 9",[3],582 nm
C[Si]1(C)C2=CC(=O)C=CC2=C(c2ccccc2C(=O)O)c2ccc(O)cc21 [2-COOH TM],"λmax,fl",[3],598 nm
same,Φfl,[3],0.38
same,"λmax,abs pH 9",[3],582 nm
"Cc1ccc(C2=C3C=CC(=O)C=C3[Si](C)(C)c3cc(O)ccc32)c(C)c1 [2,4-DiMe, 2,4-Dimethyl TokyoMagenta]",Φfl,[1],0.41
same,Oxidation potential (V vs SCE),[2],2.08 V vs SCE
CaTM-2,Φfl in 0 μM free [Ca2+] buffer,[4],0.024
same,λabs in 0 μM free [Ca2+] buffer,[4],597 nm
same,λfl in 0 μM free [Ca2+] buffer,[4],609 nm
same,Φfl in 39 μM free [Ca2+] buffer,[4],0.39
same,λabs in 39 μM free [Ca2+] buffer,[4],597 nm
same,λfl in 39 μM free [Ca2+] buffer,[4],609 nm
same,Kd,[4]; read-out: Kd,200 nM
same,Change of absorption spectra with Ca2+ ion concentration,[4],not changed
same,Change of fluorescence intensity with Ca2+ ion concentration,[4],fluorescence intensity was increased with increasing of Ca^2+ ion concentration
same,Intracellular localization,A549 cells,uniformly distributed in the cytoplasm
same,Detection of neuronal action potential via transient change of intracellular calcium ion concentration,[8],observed with sufficient sensitivity
same,Detection of calcium vibration induced by histamine stimulation,HeLa cells,more sharply detected the calcium vibration induced by histamine stimulation
